In patent publication US20060014949A1 (SuperGen Inc., priority 2004, published 2006):
In brackets after ≈: the same amount, converted by molar mass. Blank lines part the entries; values can stand above or below the compound they belong to.

How the values were obtained:
Format in all cases: physicochemical
[1] = Relative humidity stress experiments, XRPD after storage over saturated salt solutions
Protocol: In relative humidity (RH) stress analysis, open vials containing solid samples were placed inside chambers containing saturated salt solutions along with a small amount of the undissolved salt. The chambers were sealed and allowed to stand at ambient temperature for several days. Samples were analyzed by X-ray powder diffraction (XRPD) immediately after removing the sample from the RH chamber. The RH values these salt solutions were obtained from an ASTM standard.

[2] = Thermogravimetric analysis (TGA)
Protocol: Thermogravimetric analysis (TGA) was carried out on TA Instruments TGA 2050 or 2950. The calibration standards were nickel and Alumel™. Samples were placed on a clean, aluminum sample pan, accurately weighed, and inserted into the TGA furnace. The samples were heated in nitrogen at a rate of 10° C./min, from 35° C. to a final temperature of 250° C.

[3] = Moisture sorption/desorption analysis (VTI SGA-100); settings: for solid form after moisture sorption/desorption analysis: after sorption/desorption cycle
Protocol: Moisture sorption/desorption data were collected on a VTI SGA-100 Vapor Sorption Analyzer. Sorption and desorption data were collected over a range of 5 to 95% relative humidity (RH) at 10% RH increments under a nitrogen purge. Sodium chloride (NaCl) and polyvinylpyrrolidone (PVP) were used as the calibration standards. Equilibrium criteria used for analysis were less than 0.0100% weight change in 5 minutes, with a maximum equilibration time of 180 minutes if the weight criterion was not met. Data collected were not corrected for the initial moisture content of the samples.

[4] = Solid-state stress (compression, heating, grinding, storage) with XRPD form check
Protocol: X-ray powder diffraction analyses were carried out on a Shimadzu XRD-6000 X-ray powder diffractometer using Cu Kα radiation having a wavelength of 1.5406 Å. The instrument is equipped with a fine-focus X-ray tube. The tube power was set by setting potential difference at 40 kV, and current 40 mA. The divergence and scattering slits were set at 1° and the receiving slit was set at 0.15 mm. Diffracted radiation was detected by a NaI scintillation detector. A theta-two theta continuous scan at 3°/min (0.4 sec/0.02° step) from 2.5 to 40 °2θ was performed. A silicon standard was analyzed each day to check the instrument alignment. Each sample was analyzed in a quartz sample holder. A variable temperature (VT-XRPD) experiment was performed on one form. The sample was prepared for analysis by pressing it into a variable temperature holder.

[5] = Approximate solubility by solvent aliquot addition, visual inspection; settings: thermodynamic from solid
Protocol: Solvents were either reagent or HPLC grade. The aliquots were typically either 100 μL or 1 mL. Between additions, the mixture was typically shaken or sonicated. Whether the solids dissolved was judged by visual inspection. Solubilities were estimated from these experiments based on the total solvent used to provide complete dissolution.
Solubilities were estimated from these experiments based on the total solvent used to give a solution. Duplicate runs were averaged.

XRPD result ([1]; Magnesium Chloride, 33.1 % RH @ 20° C., 28 days): remained unchanged
XRPD result ([1]; Potassium Acetate, 23.1 % RH @ 20° C., 25 days): converted from form C to form B
XRPD result ([1]; Potassium Chloride, 85.1 % RH @ 20° C., 28 days): converted from form C to form B
TGA Results: percent weight change from 25 to 150° C. ([2]; listed as C): 1.2%
TGA Results: percent weight change from 25 to 150° C. ([2]; listed as form C): approximately 1.2%
TGA weight loss at about 150° C. ([2]; sample prepared by vacuum evaporation of a solution in water (sample no. 1029-65-05)): ~7.2%
TGA weight loss at about 150° C. ([2]; weight equilibrium event at 25° C. omitted from the TGA method): approximately 3.2%
total weight gain from 5 to 95% RH ([3]; 5 to 95% RH): ~13%
solid form after moisture sorption/desorption analysis ([3]; listed as form C): converts to form B
weight (water) lost upon equilibration to 5% RH [3]: 1.4%
weight (water) lost upon equilibration to 5% RH ([3]; listed as form C): approximately 1.4%
Compound: Nc1ncn([C@H]2C[C@H](O)[C@@H](CO)O2)c(=O)n1 [Form C]

XRPD Pattern ([4]; Post TGA @ 150° C. 10 min (dry nitrogen)): converts to form A
form change in VT-XRPD experiment ([4]; heated in the presence of air): converted to a mixture of forms B and C
form change on storage ([4]; vacuum oven at room temperature for 6 days): converts to form C
TGA Results: percent weight change from 25 to 150° C. ([2]; listed as B): 7.212%
TGA Results: percent weight change from 25 to 150° C. ([2]; listed as form B): 7.2%
water regained at 95% RH ([3]; 95% RH): 0.09%
Weight % chg ([3]; Table 5, desorption, RH 4.98 %, 25.07 deg C, 854.2 min): −2.2984%
Weight % chg ([3]; Table 5, desorption, RH 15.05 %, 25.07 deg C, 672.3 min): 0.0005%
Weight % chg ([3]; Table 5, desorption, RH 25.12 %, 25.06 deg C, 665.2 min): 0.0098%
Weight % chg ([3]; Table 5, desorption, RH 35.00 %, 25.07 deg C, 658.2 min): 0.0184%
Weight % chg ([3]; Table 5, desorption, RH 45.01 %, 25.06 deg C, 650.7 min): 0.0274%
Weight % chg ([3]; Table 5, desorption, RH 55.06 %, 25.06 deg C, 643.2 min): 0.0357%
Weight % chg ([3]; Table 5, desorption, RH 65.04 %, 25.07 deg C, 635.7 min): 0.0439%
Weight % chg ([3]; Table 5, desorption, RH 75.10 %, 25.06 deg C, 627.7 min): 0.0553%
Weight % chg ([3]; Table 5, desorption, RH 85.33 %, 25.07 deg C, 619.7 min): 0.0688%
Weight % chg ([3]; Table 5, sorption, RH 4.98 %, 25.06 deg C, 185.1 min): −2.3894%
Weight % chg ([3]; Table 5, sorption, RH 15.24 %, 25.07 deg C, 193.2 min): −2.4118%
Weight % chg ([3]; Table 5, sorption, RH 24.84 %, 25.07 deg C, 242.2 min): −2.2223%
Weight % chg ([3]; Table 5, sorption, RH 35.00 %, 25.06 deg C, 384.9 min): −1.2517%
Weight % chg ([3]; Table 5, sorption, RH 44.84 %, 25.06 deg C, 499.6 min): −0.5520%
Weight % chg ([3]; Table 5, sorption, RH 54.81 %, 25.07 deg C, 556.5 min): −0.1535%
Weight % chg ([3]; Table 5, sorption, RH 65.01 %, 25.07 deg C, 579.8 min): −0.0371%
Weight % chg ([3]; Table 5, sorption, RH 74.89 %, 25.08 deg C, 592.3 min): 0.0119%
Weight % chg ([3]; Table 5, sorption, RH 84.81 %, 25.08 deg C, 601.5 min): 0.0426%
Weight % chg ([3]; Table 5, sorption, RH 94.59 %, 25.09 deg C, 613.0 min): 0.0851%
Weight % chg ([3]; Table 5, start, RH 2.15 %, 25.08 deg C, 0.0 min): 0.0000%
Weight % chg ([3]; Table 7, desorption, RH 4.96 %, 25.03 deg C, 887.7 min): −1.6786%
Weight % chg ([3]; Table 7, desorption, RH 14.79 %, 25.03 deg C, 771.0 min): 6.1361%
Weight % chg ([3]; Table 7, desorption, RH 24.87 %, 25.03 deg C, 758.6 min): 6.2283%
Weight % chg ([3]; Table 7, desorption, RH 35.04 %, 25.03 deg C, 749.3 min): 6.3408%
Weight % chg ([3]; Table 7, desorption, RH 45.13 %, 25.02 deg C, 739.6 min): 6.4585%
Weight % chg ([3]; Table 7, desorption, RH 54.99 %, 25.02 deg C, 725.7 min): 6.6172%
Weight % chg ([3]; Table 7, desorption, RH 65.12 %, 25.03 deg C, 711.7 min): 6.8321%
Weight % chg ([3]; Table 7, desorption, RH 75.27 %, 25.03 deg C, 697.2 min): 7.1750%
Weight % chg ([3]; Table 7, desorption, RH 85.18 %, 25.03 deg C, 673.5 min): 7.9222%
Weight % chg ([3]; Table 7, sorption, RH 4.95 %, 25.07 deg C, 47.5 min): −1.4176%
Weight % chg ([3]; Table 7, sorption, RH 14.98 %, 25.08 deg C, 60.6 min): −1.3613%
Weight % chg ([3]; Table 7, sorption, RH 24.93 %, 25.08 deg C, 73.7 min): −1.2692%
Weight % chg ([3]; Table 7, sorption, RH 35.04 %, 25.08 deg C, 94.3 min): −0.8649%
Weight % chg ([3]; Table 7, sorption, RH 44.87 %, 25.08 deg C, 116.7 min): −0.4555%
Weight % chg ([3]; Table 7, sorption, RH 55.02 %, 25.05 deg C, 298.7 min): 3.5457%
Weight % chg ([3]; Table 7, sorption, RH 65.01 %, 25.05 deg C, 385.9 min): 6.2129%
Weight % chg ([3]; Table 7, sorption, RH 74.94 %, 25.05 deg C, 413.2 min): 6.6223%
Weight % chg ([3]; Table 7, sorption, RH 85.01 %, 25.05 deg C, 456.7 min): 7.2160%
Weight % chg ([3]; Table 7, sorption, RH 95.15 %, 25.03 deg C, 640.2 min): 11.2538%
Weight % chg ([3]; Table 7, start, RH 2.94 %, 25.07 deg C, 0.0 min): 0.0000%
solid form after moisture sorption/desorption analysis [3]: a mixture of forms B and form C
weight (water) lost upon equilibration to 5% RH [3]: ~2.4%
RH at which the moisture lost at 5% RH is regained ([3]; sorption cycle): about 44 % RH
Compound: Nc1ncn([C@H]2C[C@H](O)[C@@H](CO)O2)c(=O)n1.O [Form B]

XRPD Pattern ([4]; no solvent, Hydraulic Press 10,000 lbs ~3 min): A + 1 peak
solubility ([5]; 1,1,1,3,3,3-hexafluoro-2-propanol, organic solvent or mixture, solvent 1,1,1,3,3,3-Hexafluoro-2-propanol): ~18000 µg/mL (≈ 78.9 mM)
solubility ([5]; 1,1,1-trichloroethane, organic solvent or mixture, solvent 1,1,1-Trichloroethane): < 1000 µg/mL
solubility ([5]; 1,4-dioxane, organic solvent or mixture, solvent 1,4-Dioxane): < 2000 µg/mL
solubility ([5]; 2-butanone, organic solvent or mixture, solvent 2-Butanone): < 1000 µg/mL
solubility ([5]; 2-propanol, organic solvent or mixture, solvent 2-Propanol): < 1000 µg/mL
solubility ([5]; acetone, organic solvent or mixture, solvent Acetone): < 1000 µg/mL
solubility ([5]; acetonitrile, organic solvent or mixture, solvent Acetonitrile): < 1000 µg/mL
solubility ([5]; chloroform, organic solvent or mixture, solvent Chloroform): < 1000 µg/mL
solubility ([5]; dichloromethane, organic solvent or mixture, solvent Dichloromethane): < 1000 µg/mL
solubility ([5]; dichloromethane:ethanol (1:1), organic solvent or mixture, solvent Dichloromethane:Ethanol (1:1)): < 1000 µg/mL
solubility ([5]; dichloromethane:methanol (1:1), organic solvent or mixture, solvent Dichloromethane:Methanol (1:1)): > 1000 µg/mL
solubility ([5]; diethylamine, organic solvent or mixture, solvent Diethylamine): < 1000 µg/mL
solubility ([5]; ethyl acetate, organic solvent or mixture, solvent Ethyl Acetate): < 1000 µg/mL
solubility ([5]; ethyl ether, organic solvent or mixture, solvent Ethyl Ether): < 1000 µg/mL
solubility ([5]; hexanes, organic solvent or mixture, solvent Hexanes): < 1000 µg/mL
solubility ([5]; methanol:2,2,2-trifluoroethanol (1:1), organic solvent or mixture, solvent Methanol:2,2,2-Trifluoroethanol (1:1)): > 1000 µg/mL
solubility ([5]; methanol:water (1:1), aqueous with cosolvent or surfactant or cyclodextrin, solvent Methanol:Water (1:1)): 4000 µg/mL (≈ 17.5 mM)
solubility ([5]; methyl sulfide, organic solvent or mixture, solvent Methyl Sulfide): < 1000 µg/mL
solubility ([5]; methyl sulfoxide, organic solvent or mixture, solvent Methyl Sulfoxide): ~37000 µg/mL (≈ 162 mM)
solubility ([5]; nitromethane, organic solvent or mixture, solvent Nitromethane): < 1000 µg/mL
solubility ([5]; tetrahydrofuran, organic solvent or mixture, solvent Tetrahydrofuran): < 1000 µg/mL
solubility ([5]; toluene, organic solvent or mixture, solvent Toluene): < 1000 µg/mL
solubility ([5]; water, solvent Water): ~8000 µg/mL (≈ 35.1 mM)
Compound: Nc1ncn([C@H]2C[C@H](O)[C@@H](CO)O2)c(=O)n1 [Decitabine, 5-aza-2′-deoxycytidine]
